Read-outs that look alike come from different tables or passages of the source.
System: Hep3B cells (hepatocellular carcinoma cell line)
Experiment: In vitro MTS cell viability assay (NCI-60 methodology), Hep3B
Assay type: cell-based
Conditions: Homo sapiens, 48 h, 2 days drug incubation, 50% reduction vs time zero, read-out: Hep3B LC50
Summary of the method: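 Hep3B cells given five 2-fold dilutions of compound for 2 days, with viability by MTS measured at time zero and at end. LC50 is the concentration giving a 50% fall in viable cells relative to the start of treatment, per NCI-60 formula.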

Structure (SMILES): CC(C)(C)c1ccc(-c2nc(NC(=O)c3ccc([N+](=O)[O-])s3)c3cnn(-c4ccccc4)c3n2)cc1 [Compound 5-37, N-(6-(4-(tert-butyl)phenyl)-1-phenyl-1H-pyrazolo[3,4-d]pyrimidin-4-yl)-5-nitrothiophene-2-carboxamide]
- LC50 (Table 5, MTS): 780 nM

Structure (SMILES): C=CC(=O)N1CCC(n2ncc3c(NC(=O)c4ccc([N+](=O)[O-])s4)nc(-c4ccc(F)nc4)nc32)CC1 [Compound 9-6]
- LC50 (Table 9, MTS): 1250 nM

Structure (SMILES): Cc1csc2c(NC(=O)c3ccc([N+](=O)[O-])s3)nc(-c3cc(C(F)(F)F)cc(C(F)(F)F)c3)nc12 [Compound 4-6, N-(2-(3,5-bis(trifluoromethyl)phenyl)-7-methylthieno[3,2-d]pyrimidin-4-yl)-5-nitrothiophene-2-carboxamide]
- LC50 (Table 4, MTS): 420 nM

Structure (SMILES): O=C(Nc1nc(N2CCC(F)(F)CC2)nc2c1cnn2-c1ccc(F)cc1)c1ccc([N+](=O)[O-])s1 [Compound 6-98, N-(6-(4,4-difluoropiperidin-1-yl)-1-(4-fluorophenyl)-1H-pyrazolo[3,4-d]pyrimidin-4-yl)-5-nitrothiophene-2-carboxamide]
- LC50 (Table 6, MTS): 430 nM

Structure (SMILES): O=C(Nc1nc(-c2ccc(C(F)(F)F)cc2)nc2c1cnn2-c1ccc(C(F)(F)F)cn1)c1ccc([N+](=O)[O-])s1 [Compound 7-4, 5-nitro-N-(6-(4-(trifluoromethyl)phenyl)-1-(5-(trifluoromethyl)pyridin-2-yl)-1H-pyrazolo[3,4-d]pyrimidin-4-yl)thiophene-2-carboxamide]
- LC50 (Table 7, MTS): 220 nM

Structure (SMILES): Cc1ccc(-n2ncc3c(NC(=O)c4ccc([N+](=O)[O-])s4)nc(-c4ccc(Cl)cc4)nc32)cc1 [Compound 6-7]
- LC50 (Table 6, MTS): 290 nM

Structure (SMILES): CC(=O)c1ccc(-c2nc(NC(=O)c3ccc([N+](=O)[O-])s3)c3cnn(C4CCCCC4)c3n2)cc1 [Compound 10-28, N-(6-(4-acetylphenyl)-1-cyclohexyl-1H-pyrazolo[3,4-d]pyrimidin-4-yl)-5-nitrothiophene-2-carboxamide]
- LC50 (Table 10, MTS): 1930 nM

Structure (SMILES): CC(C)(C)c1ccc(-n2ncc3c(NC(=O)c4ccc([N+](=O)[O-])s4)nc(-n4cc(C(F)(F)F)cn4)nc32)cc1 [Compound 6-78, N-(1-(4-(ter-butyl)phenyl)-6-(4-(trifluoromethyl)-1H-pyrazol-1-yl)-1H-pyrazolo[3,4-d]pyrimidin-4-yl)-5-nitrothiophene-2-carboxamide]
- LC50 (Table 6, MTS): 570 nM

Structure (SMILES): COC(=O)c1ccc(-c2nc(NC(=O)c3ccc([N+](=O)[O-])s3)c3cnn(C4CC(C)CC(C)C4)c3n2)cc1 (stereo not shown) [Compound 10-71, methyl 4-(1-(3,5-dimethylcyclohexyl)-4-(5-nitrothiophene-2-carboxamido)-1H-pyrazolo[3,4-d]pyrimidin-6-yl)benzoate]
- LC50 (Table 10, MTS): 690 nM

Structure (SMILES): CC1CC(C)CC(n2ncc3c(NC(=O)c4ccc([N+](=O)[O-])s4)nc(-c4ccc(F)nc4)nc32)C1 (stereo not shown) [Compound 10-68, N-(1-(3,5-dimethylcyclohexyl)-6-(6-fluoropyridin-3-yl)-1H-pyrazolo[3,4-d]pyrimidin-4-yl)-5-nitrothiophene-2-carboxamide]
- LC50 (Table 10, MTS): 970 nM

Structure (SMILES): Cc1csc2c(NC(=O)c3ccc([N+](=O)[O-])s3)nc(Oc3ccc(C(C)(C)C)cc3)nc12 [Compound 4-12, N-(2-(4-(tert-butyl)phenoxy)-7-methylthieno[3,2-d]pyrimidin-4-yl)-5-nitrothiophene-2-carboxamide]
- LC50 (Table 4, MTS): 1340 nM

Structure (SMILES): CC(C)(C)c1ccc(-n2ncc3c(NC(=O)c4ccc([N+](=O)[O-])s4)nc(OCCN4CCOCC4)nc32)cc1 [Compound 6-60, N-(1-(4-(tert-butyl)phenyl)-6-(2-morpholinoethoxy)-1H-pyrazolo[3,4-d]pyrimidin-4-yl)-5-nitrothiophene-2-carboxamide]
- LC50 (Table 6, MTS): 890 nM

Structure (SMILES): COc1ccc(/C=C/c2nc(NC(=O)c3ccc([N+](=O)[O-])s3)c3cnn(C)c3n2)cc1 [Compound 1-12, (E)-N-(6-(4-methoxystyryl)-1-methy-1H-pyrazolo[3,4-d]pyrimidin-4-yl)-5-nitrothiophene-2-carboxamide]
- LC50 (Table 1, MTS): > 5000 nM

Structure (SMILES): O=C(Nc1nc(-c2ccc(F)nc2)nc2c1cnn2-c1ccc(Cl)cc1Cl)c1ccc([N+](=O)[O-])s1 [Compound 7-10]
- LC50 (Table 7, MTS): > 1250 nM

Structure (SMILES): Cc1ccc(-c2nc(NC(=O)c3ccc([N+](=O)[O-])s3)c3cnn(C4CCCCC4)c3n2)cn1 [Compound 10-19]
- LC50 (Table 10, MTS): 1130 nM

Structure (SMILES): Cn1ncc2c(NC(=O)c3ccc([N+](=O)[O-])s3)nc(-c3cccc(OC(F)(F)F)c3)nc21 [Compound 1-6, N-(1-methyl-6-(3-(trifluoromethoxy)phenyl)-1H-pyrazolo[3,4-d]pyrimidin-4-yl)-5-nitrothiophene-2-carboxamide]
- LC50 (Table 1, MTS): 1470 nM

Structure (SMILES): O=C(Nc1nc(-c2cccc(Cl)c2)nc2c1cnn2C1CCCCC1)c1ccc([N+](=O)[O-])s1 [Compound 10-16, N-(6-(3-chlorophenyl)-1-cyclohexyl-1H-pyrazolo[3,4-d]pyrimidin-4-yl)-5-nitrothiophene-2-carboxamide]
- LC50 (Table 10, MTS): 610 nM

Structure (SMILES): CCOC(=O)c1ccc(-c2nc(NC(=O)c3ccc([N+](=O)[O-])s3)c3cnn(C4CCCCC4)c3n2)cc1 [Compound 10-33, ethyl 4-(1-cyclohexyl-4-(5-nitrothiophene-2-carboxamido)-1H-pyrazolo[3,4-d]pyrimidin-6-yl)benzoate]
- LC50 (Table 10, MTS): 540 nM

Structure (SMILES): COC[C@@H]1CCCN1c1nc(NC(=O)c2ccc([N+](=O)[O-])s2)c2cnn(-c3ccc(F)cc3)c2n1 [Compound 6-103, (S)—N-(1-(4-fluorophenyl)-6-(2-(methoxymethyl)pyrrolidin-1-yl)-1H-pyrazolo[3,4-d]pyrimidin-4-yl)-5-nitrothiophene-2-carboxamide]
- LC50 (Table 6, MTS): 780 nM

Structure (SMILES): CCOCCOCCOC[C@@H]1CCCN1c1nc(NC(=O)c2ccc([N+](=O)[O-])s2)c2cnn(-c3ccc(C(C)(C)C)cc3)c2n1 [Compound 6-72, (S)—N-(1-(4-(tert-butyl)phenyl)-6-(2-((2-(2-ethoxyethoxy)ethoxy)methyl)pyrrolidin-1-yl)-1H-pyrazolo[3,4-d]pyrimidin-4-yl)-5-nitrothiophene-2-carboxamide]
- LC50 (Table 6, MTS): 670 nM

Structure (SMILES): O=C(Nc1nc(-c2ccc(F)cc2F)nc2c1cnn2-c1ccc(C(F)(F)F)cn1)c1ccc([N+](=O)[O-])s1 [Compound 7-6]
- LC50 (Table 7, MTS): 150 nM

Structure (SMILES): O=C(Nc1nc(-c2ccc(Cl)s2)nc2c1cnn2-c1ccccc1)c1ccc([N+](=O)[O-])s1 [Compound 5-19, N-(6-(5-chlorothiophen-2-yl)-1-phenyl-1H-pyrazolo[3,4-d]pyrimidin-4-yl)-5-nitrothiophene-2-carboxamide]
- LC50 (Table 5, MTS): 170 nM

Structure (SMILES): C[C@@H]1C[C@@H](n2ncc3c(NC(=O)c4ccc([N+](=O)[O-])s4)nc(-c4ccc(Cl)cc4)nc32)CC(C)(C)C1 [Compound 8-15, N-(6-(4-chlorophenyl)-1-((1R,5S)-3,3,5-trimethylcyclohexyl)-1H-pyrazolo[3,4-d]pyrimidin-4-yl)-5-nitrothiophene-2-carboxamide]
- LC50 (Table 8, MTS): 1270 nM

Structure (SMILES): CCOCCOc1ccc(-c2nc(NC(=O)c3ccc([N+](=O)[O-])s3)c3cnn(-c4cccc(Cl)c4)c3n2)cn1 [Compound 6-44, N-(1-(3-chlorophenyl)-6-(6-(2-ethoxyethoxy)pyridin-3-yl)-1H-pyrazolo[3,4-d]pyrimidin-4-yl)-5-nitrothiophene-2-carboxamide]
- LC50 (Table 6, MTS): 450 nM

Structure (SMILES): O=C(Nc1nc(-c2ccc(F)cc2)nc2c1cnn2-c1ccccc1)c1ccc([N+](=O)[O-])s1 [Compound 5-27]
- LC50 (Table 5, MTS): 270 nM

Structure (SMILES): Cc1csc2c(NC(=O)c3ccc([N+](=O)[O-])s3)nc(-c3ccc(OC(F)(F)F)cc3)nc12 [Compound 4-4, N-(7-methyl-2-(4-(trifluoromethoxy)phenyl)thieno[3,2-d]pyrimidin-4-yl)-5-nitrothiophene-2-carboxamide]
- LC50 (Table 4, MTS): 890 nM

Structure (SMILES): COCCOc1ccc(-c2nc(NC(=O)c3ccc([N+](=O)[O-])s3)c3cnn(-c4cccc(Cl)c4)c3n2)cn1 [Compound 6-43, N-(1-(3-chlorophenyl)-6-(6-(2-methoxyethoxy)pyridin-3-yl)-1H-pyrazolo[3,4-d]pyrimidin-4-yl)-5-nitrothiophene-2-carboxamide]
- LC50 (Table 6, MTS): 90 nM

Structure (SMILES): C[C@@H]1C[C@@H](n2ncc3c(NC(=O)c4ccc([N+](=O)[O-])s4)nc(-c4ccc(F)nc4)nc32)CC(C)(C)C1 [Compound 8-14, N-(6-(6-fluoropyridin-3-yl)-1-((1R,5S)-3,3,5-trimethylcyclohexyl)-1H-pyrazolo[3,4-d]pyrimidin-4-yl)-5-nitrothiophene-2-carboxamide]
- LC50 (Table 8, MTS): 620 nM

Structure (SMILES): COC(=O)[C@@H]1CCCN1c1nc(NC(=O)c2ccc([N+](=O)[O-])s2)c2cnn(-c3cccc(Cl)c3)c2n1 [Compound 6-32, methyl (1-(3-chlorophenyl)-4-(5-nitrothiophene-2-carboxamido)-1H-pyrazolo[3,4-d]pyrimidin-6-yl)-L-prolinate]
- LC50 (Table 6, MTS): 560 nM

Structure (SMILES): O=C(Nc1nc(OCCN2CCOCC2)nc2c1cnn2-c1ccccc1)c1ccc([N+](=O)[O-])s1 [Compound 5-12, N-(6-(2-morpholinoethoxy)-1-phenyl-1H-pyrazolo[3,4-d]pyrimidin-4-yl)-5-nitrothiophene-2-carboxamide]
- LC50 (Table 5, MTS): > 3000 nM

Structure (SMILES): COCCOc1ccc(-c2nc(NC(=O)c3ccc([N+](=O)[O-])s3)c3cnn(-c4ccc(F)cc4)c3n2)c(F)c1 [Compound 6-138, N-(6-(2-fluoro-4-(2-methoxyethoxy)phenyl)-1-(4-fluorophenyl)-1H-pyrazolo[3,4,d]pyrimidin-4-yl)-5-nitrothiophene-2-carboxamide]
- LC50 (Table 6, MTS): > 1250 nM

Reference: patent publication US20240150356A1, “Pyrimidine amide compounds and use thereof” (ALPHALA CO., LTD., priority 2019, published 2024)
